# Several values for one entry are separate records, joined by “and”; a condition that tells them apart may be missing. Identical values can stand only once.
# Assays:
# naive mice [1] = experiment: Male fertility test; format: in vivo, mouse; design: Male fertility test, individual values (Fig 6E) / male fertility test, BB value (Fig S8C) / male fertility test, AB value (Fig S8C): unit not given here
# Source text: Mice were 10 weeks old at the beginning of the experiment and acclimatized to the animal facility for two weeks after arrival. Male mice were randomized into two groups (n = 8/group) and weighed and injected s.c. once daily (between 3 pm and 4 pm) for 14 days with sterile PBS or 10 μmol/kg mPD5 (diluted in sterile PBS and pH adjusted to 7.4). After 14 days of dosing, the males were paired with female mice in fresh cages, and the number of pubs counted for 35 days (males were removed from the breeding cages after 14 days). Following the 14 days mating period, males were sacrificed by cervical dislocation caudae epidymidis were removed and weighed. Caudae epidymidis were cut into smaller pieces in 2 mL PBS (37 °C) and incubated (37 °C, 5% CO2) for 15 min. Following incubation, the mix was swirled gently, and 0.5 mL of the liquid was transferred to room tempered PBS to achieve a final volume of 1 mL.
# Subsequently, sperm count was determined by transferring 50 µL of the sample to a hemocytometer, and each sample was determined in duplicate by an experimenter blinded to drug treatment. Following criteria were assessed: mobility (forward and circular), local tail mobility and total number. Females were weighed on a regular basis from removal of the males […]
# Unless otherwise stated, all data were analysed using GraphPad Prism 9.4.1. and presented as mean +-SEM with the significance level set to p < 0.05. For locomotion and elevated plus maze, Ethovision XT 13 (Noldus) was used to track the distance travelled by each animal. For within group analysis (i.e., von Frey experiments), two-way ANOVA followed by Dunnett’s post hoc test was used. For between group analysis of multiple time points (i.e., locomotion experiments), two-way ANOVA was used without post hoc test due to lack of treatment significance in the ANOVA test. For the limb use experiment, data pre versus post treatment was analysed with a Kruskal Wallis test due to the non-parametric nature of the data. When analysing histograms of three groups or more (i.e., marble burying and elevated plus maze),
# naive mice [2] = experiment: Barnes maze (spatial learning and memory, reversal learning); format: in vivo, mouse; details: for Barnes maze, count per hole (Fig S8D) / Barnes maze, count per hole (Fig S8E): individual animals;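 as to Barnes maze, count per hole (Fig S8D): Nose pokes per hole during a probe trial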;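 as to Barnes maze, count per hole (Fig S8E): Nose pokes per hole during a probe trial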
# Method: Spatial learning and memory.
# On each day, animals were moved from the housing facility to the experimental room and allowed to acclimatize for at least 60 min before initiation of the experiment. All drugs used (PBS or 10 μmol/kg mPD5) were injected s.c. in a 10 μl/g body weight volume 60 min before first placement on the Barnes’ maze on day 1-9 of the experiment. The experiment was divided into Barnes maze habituation, spatial acquisition (training) and probe trials. During habituation to the Barnes maze itself, animals were placed under a cylinder in the middle of the Barnes maze for 10 seconds and then gently guided to the escape box and left there for two min. During spatial acquisition (training), each mouse was placed under a cylinder in the middle of the Barnes maze for 10 sec followed by up to three min of free exploration of the Barnes maze.
# Once the animal entered the escape cage, it was left there for one min before being transferred back to its home cage for 15-20 min. This training was performed four times per day per mouse.
# During probe trials the reference memory of the animal was tested by placing each mouse under a cylinder in the middle of the Barnes maze for 10 sec followed by 90 sec of free exploration of the Barnes maze with no escape cage. On days 6-8, the escape hole was moved 90 degrees, and all mice went through the second bout of training. On day nine, a second probe trial was performed testing the reversal learning of the mice. […]
# Single exposure place preference. […]
# [3] = males s.c. 10 μmol/kg, once daily for 14 days
# [4] = s.c. 10 μmol/kg, once daily for 14 days
smiles,measurement,setting,value
"CCCCCCCCCCCCCC(=O)N(CCOCCOCCC(=O)N[C@@H](Cc1c[nH]cn1)C(=O)N[C@@H](Cc1c[nH]c2ccccc12)C(=O)N[C@@H](CC(C)C)C(=O)N[C@@H](CCCCN)C(=O)N[C@H](C(=O)O)C(C)C)CCOCCOCCC(=O)N[C@@H](Cc1c[nH]cn1)C(=O)N[C@@H](Cc1c[nH]c2ccccc12)C(=O)N[C@@H](CC(C)C)C(=O)N[C@@H](CCCCN)C(=O)N[C@H](C(=O)O)C(C)C [mPD5, myristoyl-NPEG4-(HWLKV)2]","male fertility test, AB value (Fig S8C)","naive mice [1]; AB, individual animals",28 (3×) and 27 and 26 and 28.5 and 29
same,"male fertility test, BB value (Fig S8C)","naive mice [1]; BB, individual animals",41.5 and 43 and 45 (2×) and 41 (2×) and 44
same,"male fertility test, cumulative value by day (Fig S8B)",naive mice [1]; Day 19,0
same,"male fertility test, cumulative value by day (Fig S8B)",naive mice [1]; Day 20,17
same,"male fertility test, cumulative value by day (Fig S8B)",naive mice [1]; Day 21,27
same,"male fertility test, cumulative value by day (Fig S8B)",naive mice [1]; Day 22,56
same,"male fertility test, cumulative value by day (Fig S8B)",naive mice [1]; Day 23,64
same,"male fertility test, cumulative value by day (Fig S8B)",naive mice [1]; Day 24,64
same,"male fertility test, cumulative value by day (Fig S8B)",naive mice [1]; Day 25,64
same,"male fertility test, cumulative value by day (Fig S8B)",naive mice [1]; Day 26,64
same,"male fertility test, cumulative value by day (Fig S8B)",naive mice [1]; Day 27,64
same,"male fertility test, cumulative value by day (Fig S8B)",naive mice [1]; Day 28,64
same,"male fertility test, cumulative value by day (Fig S8B)",naive mice [1]; Day29,64
same,"male fertility test, cumulative value by day (Fig S8B)",naive mice [1]; Day 30,64
same,"male fertility test, cumulative value by day (Fig S8B)",naive mice [1]; Day 31,64
same,"male fertility test, cumulative value by day (Fig S8B)",naive mice [1]; Day 32,64
same,"male fertility test, cumulative value by day (Fig S8B)",naive mice [1]; Day 33,64
same,"male fertility test, cumulative value by day (Fig S8B)",naive mice [1]; Day 34,64
same,"male fertility test, cumulative value by day (Fig S8B)",naive mice [1]; Day 35,64
same,body weight drop per pup following birth,naive mice [1]; [3],the same for both groups
same,number of pups per litter vs vehicle,naive mice [1]; [3],same between groups
same,weight gain of females mated with treated male mice,naive mice [1]; [3],significantly higher
same,"Male fertility test, individual values (Fig 6E)",naive mice [1]; naive mice,8 and 9 and 10
same,sperm count of the males vs vehicle,naive mice [1]; [4],same between groups
same,"sperm count, individual mice",naive mice [1]; [4],15062500 and 13125000 and 14250000 and 7750000 and 16000000 and 10750000
same,"Barnes maze, count per hole (Fig S8D)",naive mice [2]; hole position 1,2 (3×) and 1 (2×) and 0 (2×) and 3 (2×)
same,"Barnes maze, count per hole (Fig S8E)",naive mice [2]; hole position 1,3 (6×) and 1 (2×) and 2
same,"Barnes maze, count per hole (Fig S8D)",naive mice [2]; hole position 2,0 (5×) and 1 (3×) and 2
same,"Barnes maze, count per hole (Fig S8E)",naive mice [2]; hole position 2,0 (6×) and 1 (3×)
same,"Barnes maze, count per hole (Fig S8D)",naive mice [2]; hole position 3,1 (4×) and 2 (3×) and 0 (2×)
same,"Barnes maze, count per hole (Fig S8E)",naive mice [2]; hole position 3,1 (7×) and 0 and 2
same,"Barnes maze, count per hole (Fig S8D)",naive mice [2]; hole position 4,0 (4×) and 2 (2×) and 1 (3×)
same,"Barnes maze, count per hole (Fig S8E)",naive mice [2]; hole position 4,1 (6×) and 2 (2×) and 0
same,"Barnes maze, count per hole (Fig S8D)",naive mice [2]; hole position -1,2 (3×) and 3 and 1 (2×) and 6 and 0 and 4
same,"Barnes maze, count per hole (Fig S8E)",naive mice [2]; hole position -1,3 (4×) and 0 (2×) and 1 and 2 and 4
same,"Barnes maze, count per hole (Fig S8D)",naive mice [2]; hole position -2,0 (8×) and 1
same,"Barnes maze, count per hole (Fig S8E)",naive mice [2]; hole position -2,0 (4×) and 1 (4×) and 2
same,"Barnes maze, count per hole (Fig S8D)",naive mice [2]; hole position -3,0 (6×) and 1 (2×) and 2
same,"Barnes maze, count per hole (Fig S8E)",naive mice [2]; hole position -3,1 (5×) and 0 (2×) and 2 (2×)
same,"Barnes maze, count per hole (Fig S8D)",naive mice [2]; hole position -4,0 (6×) and 2 (2×) and 1
same,"Barnes maze, count per hole (Fig S8E)",naive mice [2]; hole position -4,1 (6×) and 0 (2×) and 2
same,"Barnes maze, count per hole (Fig S8D)",naive mice [2]; hole position -5,0 (6×) and 2 (2×) and 1
same,"Barnes maze, count per hole (Fig S8E)",naive mice [2]; hole position -5,1 (4×) and 0 (2×) and 2 (2×) and 3
same,"Barnes maze, count per hole (Fig S8D)",naive mice [2]; hole position -6,0 (6×) and 3 and 1 (2×)
same,"Barnes maze, count per hole (Fig S8E)",naive mice [2]; hole position -6,1 (3×) and 0 (2×) and 2 (3×) and 3
same,"Barnes maze, count per hole (Fig S8D)",naive mice [2]; hole position -7,0
same,"Barnes maze, count per hole (Fig S8E)",naive mice [2]; hole position -7,0
same,"Barnes maze, count per hole (Fig S8D)",naive mice [2]; hole position Goal,2 (2×) and 3 (2×) and 6 (2×) and 1 (2×) and 4
same,"Barnes maze, count per hole (Fig S8E)",naive mice [2]; hole position Goal,4 (3×) and 3 (3×) and 2 (2×) and 1
same,"latency to reach target and total distance moved, probe test day 5","naive mice [2]; s.c. 10 μmol/kg 60 minutes before placement, after 4 days of training",no difference
same,latency to reach the target and total distance moved following reversal learning,"naive mice [2]; s.c. 10 μmol/kg 60 minutes before placement, probe test day 9",no difference was observed
same,distribution of nose pokes between the holes,"naive mice [2]; s.c. 10 μmol/kg, both probe tests",did not differ between groups

# — PMC11530130, “Peripherally restricted PICK1 inhibitor mPD5 ameliorates pain behaviors in murine inflammatory and neuropathic pain models” (JCI Insight, 2024)
